Measurements: patent US10954214B2 (Janssen Pharmaceutica NV, priority 2016, dated 2021)

Legend:
[1] = system: IL10 secretion by TMD8 ABC-DLBCL cells; experiment: Human IL10 Mesoscale assay (TMD-8); assay type: cell-based; details: Homo sapiens, TMD8; TMD-8 cells, 24 h
Description: (§1) NFKB signaling regulates the secretion of multiple cytokines, including IL6 and IL10. Secretion of the cytokines IL6 and IL10 by TMD8 or OCI-LY3 ABC-DLBCL cells was measured using a mesoscale assay. Inhibition of NFKB signaling by MALT1 or BTK inhibitors results in a decrease of IL6/10 secretion.
(§2) TMD8 or OCI-LY3 cells were propagated in RPMI-1640 (Sigma Aldrich) supplemented with 10% fetal bovine serum (HyClone), 1 mM sodium pyruvate (Invitrogen), 2 mM L-glutamine (Sigma Aldrich) and 1% PenStrep (Sigma Aldrich). Cell passage number should not exceed 30. Cells should be kept between 0.5-2.5 million cells per mL during culturing and cells should be supplemented every 2-3 days with fresh 50 μM beta-mercaptoenthanol. No beta-mercaptoethanol was used during the mesoscale assay.
(§3) For the Mesoscale assay, 100,000 TMD8 or OCI-LY3 cells were seeded per well into black-colored 96-well plates with clear bottom (Corning #3904) and test compounds were added in 9 dilution steps (1:2) ranging from 15 μM to 58.6 nM (final DMSO concentration 0.3%). DMSO control wells were used to determine the maximum signal (High Control (HC)). Treatment with the BTK inhibitor RN486 in a dose range from 30 nM to 131 pM (9 dilutions of 1:2) served as a positive control for NFKB pathway inhibition and was used to determine the maximum inhibition (Low Control (LC)). Compounds and cells were incubated for 24 h at 37° C. and 5% CO2 (assay volume is 150 μL). After 24 h of incubation 50 μL of the supernatant was transferred to a MSD plate (V-Plex Proinflammation Panel 1 (human) kit, Mesoscale (MSD)) and incubated for 2 h with vigorous shaking (600 rpm) at room temperature. Following incubation, plates were washed 3× with PBS+0.05% Tween-20 and 25 μL detection antibody solution (IL6 & IL10 antibodies in diluent 3 (MSD)) was added per well followed by 2 h of incubation with vigorous shaking (600 rpm) at room temperature. After 3× washes with PBS+0.05% Tween-20, plates were incubated with 150 μL 2× Read Buffer T and read on SECTOR imager.

[2] = target: full-length MALT1 protein (Strep-MALT1(1-824)-His) (Homo sapiens (Human), UniProt Q9UDY8); experiment: MALT1 Biochemical Protease Assay (Ac-LRSR-AMC substrate); details: 10 nM FL MALT1, 200 μM Ac-LRSR-AMC, 4 h at RT; read-out: MALT1_Biochemical activity (Ac-LRSR-amc) IC50
Chain of full-length MALT1 protein (Strep-MALT1(1-824)-His) (Q9UDY8 whole entry): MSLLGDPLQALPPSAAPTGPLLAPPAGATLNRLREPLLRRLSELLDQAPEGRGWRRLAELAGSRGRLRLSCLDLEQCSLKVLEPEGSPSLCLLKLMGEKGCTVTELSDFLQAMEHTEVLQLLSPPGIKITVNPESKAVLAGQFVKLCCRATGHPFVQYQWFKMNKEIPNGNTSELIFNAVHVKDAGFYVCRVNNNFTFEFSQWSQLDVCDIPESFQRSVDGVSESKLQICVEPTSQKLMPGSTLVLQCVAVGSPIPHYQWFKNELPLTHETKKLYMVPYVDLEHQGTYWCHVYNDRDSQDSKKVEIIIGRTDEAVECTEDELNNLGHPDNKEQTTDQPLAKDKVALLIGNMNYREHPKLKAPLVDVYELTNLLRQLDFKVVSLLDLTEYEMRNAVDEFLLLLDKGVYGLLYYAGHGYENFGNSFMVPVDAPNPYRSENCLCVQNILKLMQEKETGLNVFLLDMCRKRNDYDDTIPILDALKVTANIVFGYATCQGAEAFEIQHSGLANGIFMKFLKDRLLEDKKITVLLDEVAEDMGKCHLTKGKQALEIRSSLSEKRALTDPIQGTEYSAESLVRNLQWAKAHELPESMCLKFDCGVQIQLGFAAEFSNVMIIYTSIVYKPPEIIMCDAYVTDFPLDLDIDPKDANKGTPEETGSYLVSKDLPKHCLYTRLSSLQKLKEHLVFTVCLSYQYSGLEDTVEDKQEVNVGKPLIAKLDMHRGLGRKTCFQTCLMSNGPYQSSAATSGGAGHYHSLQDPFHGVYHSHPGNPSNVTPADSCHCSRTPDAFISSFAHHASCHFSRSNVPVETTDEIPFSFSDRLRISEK
Description: The tetrapeptide LRSR is coupled to AMC (7-amino-4-methylcoumarin) and provides a quenched, fluorescent substrate for the MALT1 protease (SM Biochemicals). […] Test compound concentrations ranged from 30 μM to 0.5 nM using 11 dilution steps (1:3). Background signal was measured from control wells containing assay buffer without enzyme which functions as low control (LC). High control (HC) values were generated using the reaction with enzyme but no compound treatment. Compounds were pre-incubated with MALT1 enzyme for 50 minutes at RT. […] The reaction was subsequently incubated for 4 h at RT and fluorescence was measured.
LC=Median of the low control values
An estimate of the slope of the plot in terms of the Hill coefficient was also obtained. IC50 Calculation:
[formula] With • UB=upper bound • LB=lower bound Used in “Lexis Dose Response Curve Fitting” Version 1.0.

[3] = system: IL6 secretion by TMD8 ABC-DLBCL cells; experiment: Human IL6 Mesoscale assay (TMD-8); assay type: cell-based; details: Homo sapiens, TMD8; TMD-8 cells, 24 h
Description: as §1, §2, §3

In the case of `Cc1cc(NC(=O)c2cnn(-c3cccc4c(=O)[nH]ccc34)c2C(F)(F)F)c(C)nc1-n1nccn1` [Cpd 161, N-(2,5-dimethyl-6-(2H-1,2,3-triazol-2-yl)pyridin-3-yl)-1-(1-oxo-1,2-dihydroisoquinolin-5-yl)-5-(trifluoromethyl)-1H-pyrazole-4-carboxamide], the IC50 [1] is reported as > 15100 nM, the IC50 [2] is reported as 282 nM and the IC50 [3] is reported as > 15100 nM.

For `Cc1nc(-n2cccn2)c(Cl)cc1NC(=O)c1cnn(-c2cccc3c(=O)[nH]ccc23)c1C(F)(F)F` [Cpd 170, N-(5-chloro-2-methyl-6-(1H-pyrazol-1-yl)pyridin-3-yl)-1-(1-oxo-1,2-dihydroisoquinolin-5-yl)-5-(trifluoromethyl)-1H-pyrazole-4-carboxamide], the IC50 [1] was 112 nM, the IC50 [2] was 135 nM and the IC50 [3] was 339 nM.

Work on `Cc1cc(-n2nccn2)c(Cl)cc1NC(=O)c1cnn(-c2cccc3c(=O)[nH]ccc23)c1C(F)(F)F` [Cpd 171, N-(5-chloro-2-methyl-4-(2H-1,2,3-triazol-2-yl)phenyl)-1-(1-oxo-1,2-dihydroisoquinolin-5-yl)-5-(trifluoromethyl)-1H-pyrazole-4-carboxamide] yielded an IC50 [1] of 60 nM, an IC50 [2] of 71 nM and an IC50 [3] of 91 nM.

`Cc1nc(-n2nccn2)c(Br)cc1NC(=O)c1cnn(-c2cccc3c(=O)[nH]ccc23)c1C(F)(F)F` [Cpd 185, N-(5-bromo-2-methyl-6-(2H-1,2,3-triazol-2-yl)pyridin-3-yl)-1-(1-oxo-1,2-dihydroisoquinolin-5-yl)-5-(trifluoromethyl)-1H-pyrazole-4-carboxamide] showed an IC50 [1] of 162 nM, an IC50 [2] of 18 nM and an IC50 [3] of 186 nM.

Work on `O=C(Nc1cnc(-n2nccn2)c(Cl)c1)c1cnn(-c2cccc3ncccc23)c1Br` [Cpd 188, 5-Bromo-N-(5-chloro-6-(2H-1,2,3-triazol-2-yl)pyridin-3-yl)-1-(quinolin-5-yl)-1H-pyrazole-4-carboxamide] yielded an IC50 [1] of 50 nM, an IC50 [2] of 115 nM and an IC50 [3] of 46 nM.

For `Cc1nc(-n2nccn2)c(Cl)cc1NC(=O)c1cnn(-c2ccc(F)c3nccn23)c1C(F)(F)F` [Cpd 203, N-(5-chloro-2-methyl-6-(2H-1,2,3-triazol-2-yl)pyridin-3-yl)-1-(8-fluoroimidazo[1,2-a]pyridin-5-yl)-5-(trifluoromethyl)-1H-pyrazole-4-carboxamide], the IC50 [1] was 2690 nM, the IC50 [2] was 162 nM and the IC50 [3] was 5620 nM.

`O=C(Nc1cnc(-n2nccn2)c(Cl)c1)c1cnn(-c2c(F)ccc3nccn23)c1C(F)(F)F` [Cpd 205, N-(5-chloro-6-(2H-1,2,3-triazol-2-yl)pyridin-3-yl)-1-(6-fluoroimidazo[1,2-a]pyridin-5-yl)-5-(trifluoromethyl)-1H-pyrazole-4-carboxamide] was tested, and the IC50 [1] was 1900 nM, the IC50 [2] was 195 nM and the IC50 [3] was > 15100 nM.

With `Cc1cn2c(-n3ncc(C(=O)Nc4ccnc(C(F)(F)F)c4)c3C(F)(F)F)cccc2n1` [Cpd 206, 1-(2-methylimidazo[1,2-a]pyridin-5-yl)-5-(trifluoromethyl)-N-(2-(trifluoromethyl)pyridin-4-yl)-1H-pyrazole-4-carboxamide] the IC50 [1] was 3890 nM, the IC50 [2] was 1740 nM and the IC50 [3] was 6170 nM.

`O=C(Nc1ccnc(C(F)(F)F)c1)c1cnn(-c2cccc3nccn23)c1C(F)(F)F` [Cpd 208, 1-(imidazo[1,2-a]pyridin-5-yl)-5-(trifluoromethyl)-N-(2-(trifluoromethyl)pyridin-4-yl)-1H-pyrazole-4-carboxamide] was tested, and the IC50 [1] was 8710 nM, the IC50 [2] was 316 nM and the IC50 [3] was > 15100 nM.

With `O=C(Nc1ccnc(C(F)(F)F)c1)c1cnn(-c2ccc(F)c3nccn23)c1C(F)(F)F` [Cpd 209, 1-(8-fluoroimidazo[1,2-a]pyridin-5-yl)-5-(trifluoromethyl)-N-(2-(trifluoromethyl)pyridin-4-yl)-1H-pyrazole-4-carboxamide] the IC50 [1] was 1120 nM, the IC50 [2] was 224 nM and the IC50 [3] was 1480 nM.

Work on `Cc1cnc2cccc(-n3ncc(C(=O)Nc4cnc(-n5nccn5)c(Cl)c4)c3C(F)(F)F)n12` [Cpd 211, N-(5-chloro-6-(2H-1,2,3-triazol-2-yl)pyridin-3-yl)-1-(3-methylimidazo[1,2-a]pyridin-5-yl)-5-(trifluoromethyl)-1H-pyrazole-4-carboxamide] yielded an IC50 [1] of 2290 nM, an IC50 [2] of 35 nM and an IC50 [3] of 1660 nM.

Work on `CN1CCc2ccc(NC(=O)c3cnn(-c4cccc5ncccc45)c3C(F)(F)F)cc2C1=O` [Cpd 212, N-(2-methyl-1-oxo-1,2,3,4-tetrahydroisoquinolin-7-yl)-1-(quinolin-5-yl)-5-(trifluoromethyl)-1H-pyrazole-4-carboxamide] yielded an IC50 [1] of 513 nM, an IC50 [2] of 11000 nM and an IC50 [3] of 1020 nM.

`CS(=O)(=O)c1cc(NC(=O)c2cnn(-c3cccc4ncccc34)c2C(F)(F)F)ccc1-n1ccnn1` [Cpd 213, N-(3-(methylsulfonyl)-4-(1H-1,2,3-triazol-1-yl)phenyl)-1-(quinolin-5-yl)-5-(trifluoromethyl)-1H-pyrazole-4-carboxamide] was tested, and the IC50 [1] was > 15100 nM, the IC50 [2] was 10000 nM and the IC50 [3] was > 15100 nM.

For `CN1C(=O)COc2ccc(NC(=O)c3cnn(-c4cccc5ncccc45)c3C(F)(F)F)cc21` [Cpd 214, N-(4-methyl-3-oxo-3,4-dihydro-2H-benzo[b][1,4]oxazin-6-yl)-1-(quinolin-5-yl)-5-(trifluoromethyl)-1H-pyrazole-4-carboxamide], the IC50 [1] was 2240 nM, the IC50 [2] was 6030 nM and the IC50 [3] was 2040 nM.

Work on `CS(=O)(=O)c1cc(NC(=O)c2cnn(-c3cccc4ncccc34)c2C(F)(F)F)ccc1-n1nccn1` [Cpd 215, N-(3-(methylsulfonyl)-4-(2H-1,2,3-triazol-2-yl)phenyl)-1-(quinolin-5-yl)-5-(trifluoromethyl)-1H-pyrazole-4-carboxamide] yielded an IC50 [1] of 2090 nM, an IC50 [2] of 5750 nM and an IC50 [3] of 12300 nM.

In the case of `Cn1ccc2ccc(NC(=O)c3cnn(-c4cccc5ncccc45)c3C(F)(F)F)cc2c1=O` [Cpd 216, N-(2-methyl-1-oxo-1,2-dihydroisoquinolin-7-yl)-1-(quinolin-5-yl)-5-(trifluoromethyl)-1H-pyrazole-4-carboxamide], the IC50 [1] is reported as 339 nM, the IC50 [2] is reported as 5370 nM and the IC50 [3] is reported as 912 nM.

Work on `O=C1COc2ccc(NC(=O)c3cnn(-c4cccc5ncccc45)c3C(F)(F)F)cc2N1` [Cpd 217, N-(3-oxo-3,4-dihydro-2H-benzo[b][1,4]oxazin-6-yl)-1-(quinolin-5-yl)-5-(trifluoromethyl)-1H-pyrazole-4-carboxamide] yielded an IC50 [1] of 269 nM, an IC50 [2] of 4900 nM and an IC50 [3] of 537 nM.

In the case of `Cc1cc(NC(=O)c2cnn(-c3cccc4ncccc34)c2C(F)(F)F)cnc1-n1ccn(C)c1=O` [Cpd 218, N-(5-methyl-6-(3-methyl-2-oxo-2,3-dihydro-1H-imidazol-1-yl)pyridin-3-yl)-1-(quinolin-5-yl)-5-(trifluoromethyl)-1H-pyrazole-4-carboxamide], the IC50 [1] is reported as 87 nM, the IC50 [2] is reported as 3470 nM and the IC50 [3] is reported as 174 nM.

With `N#Cc1cc(NC(=O)c2cnn(-c3cc(Cl)nc4ccccc34)c2C(F)(F)F)cnc1-n1nccn1` [Cpd 220, 1-(2-chloroquinolin-4-yl)-N-(5-cyano-6-(2H-1,2,3-triazol-2-yl)pyridin-3-yl)-5-(trifluoromethyl)-1H-pyrazole-4-carboxamide] the IC50 [1] was 468 nM, the IC50 [2] was 2140 nM and the IC50 [3] was 851 nM.

`O=C(Nc1cnc(-n2nccn2)c(Cl)c1)c1cnn(-c2ncnc3[nH]ncc23)c1C(F)(F)F` [Cpd 222, N-(5-chloro-6-(2H-1,2,3-triazol-2-yl)pyridin-3-yl)-1-(1H-pyrazolo[3,4-d]pyrimidin-4-yl)-5-(trifluoromethyl)-1H-pyrazole-4-carboxamide] was tested, and the IC50 [1] was 575 nM, the IC50 [2] was 1700 nM and the IC50 [3] was 3310 nM.

In the case of `N#Cc1cc(NC(=O)c2cnn(-c3ccnc4ccncc34)c2C(F)(F)F)cnc1-n1nccn1` [Cpd 223, N-(5-cyano-6-(2H-1,2,3-triazol-2-yl)pyridin-3-yl)-1-(1,6-naphthyridin-4-yl)-5-(trifluoromethyl)-1H-pyrazole-4-carboxamide], the IC50 [1] is reported as 1180 nM, the IC50 [2] is reported as 1700 nM and the IC50 [3] is reported as 759 nM.
